According to PMC12037410, “Pharmacological targeting of BMAL1 modulates circadian and immune pathways” (Nature Chemical Biology, 2025):

Each compound was assayed against BMAL1 (Homo sapiens, UniProt O00327). Details: dTmB; binder.
BMAL1, sequence (O00327 338-449): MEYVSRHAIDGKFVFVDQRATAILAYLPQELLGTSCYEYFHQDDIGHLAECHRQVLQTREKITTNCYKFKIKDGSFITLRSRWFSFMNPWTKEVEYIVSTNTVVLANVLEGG
Parameters: PASB domain (residues 338–449); Protein thermal shift (PTS) fragment screen on recombinant human BMAL1(PASB), shift of melting temperature
For `O=C(c1ccccc1)c1ccccc1` [Prestw-Frag-1860, Compound 423], the “Bmal1(PASB) dTmB” value was -0.99 °C. In the case of `CS(=O)(=O)Nc1ccccc1Oc1ccccc1` [Prestw-Frag-1861, Compound 432], the “Bmal1(PASB) dTmB” value is reported as -1.83 °C. In the case of `COC(=O)C(O)(c1ccccc1)C1CCCCC1` (stereo not drawn) [Prestw-Frag-1867, Compound 446], the “Bmal1(PASB) dTmB” value is reported as -1.54 °C. In the case of `c1ccc(CC2CCNCC2)cc1` [Prestw-Frag-1868, Compound 296], the “Bmal1(PASB) dTmB” value is reported as -0.76 °C. With `O=C1NCN(c2ccccc2)C12CCNCC2` [Prestw-Frag-1869, Compound 339] the “Bmal1(PASB) dTmB” value was -0.72 °C. `Nc1ccnc2ccccc12` [Prestw-Frag-1878, Compound 323] was tested, and the “Bmal1(PASB) dTmB” value was -0.67 °C. `CC(=O)c1ccccc1O` [Prestw-Frag-1884, Compound 211] was tested, and the “Bmal1(PASB) dTmB” value was -0.17 °C. With `COc1ccc(CNCCN(C)C)cc1` [Prestw-Frag-1887, Compound 172] the “Bmal1(PASB) dTmB” value was -0.14 °C. `CN(C)Cc1ccc(CSCCN)o1` [Prestw-Frag-1889, Compound 8] was tested, and the “Bmal1(PASB) dTmB” value was -2.44 °C. With `Cc1ccc(S(N)(=O)=O)cc1` [Prestw-Frag-1894, Compound 198] the “Bmal1(PASB) dTmB” value was -0.38 °C. With `NS(=O)(=O)c1ccccc1` [Prestw-Frag-1895, Compound 148] the “Bmal1(PASB) dTmB” value was -0.29 °C. For `COc1ccc2nc(N)sc2c1` [Prestw-Frag-1898, Compound 305], the “Bmal1(PASB) dTmB” value was 1.10 °C. `O=C1Nc2ccccc2Nc2ccccc21` [Prestw-Frag-1904, Compound 439] was tested, and the “Bmal1(PASB) dTmB” value was 0.05 °C. With `CCCOc1ccccc1C(=N)N` [Prestw-Frag-1910, Compound 398] the “Bmal1(PASB) dTmB” value was -0.43 °C. In the case of `Cc1ccccc1-c1ccccc1CO` [Prestw-Frag-1923, Compound 451], the “Bmal1(PASB) dTmB” value is reported as -1.24 °C. For `OC(c1ccc(F)cc1)c1ccc(F)cc1` [Prestw-Frag-1924, Compound 461], the “Bmal1(PASB) dTmB” value was -1.89 °C. `NCCOC(c1ccc(F)cc1)c1ccc(F)cc1` [Prestw-Frag-1925, Compound 448] was tested, and the “Bmal1(PASB) dTmB” value was -1.45 °C. With `CC(C)(C)NCC(O)c1ccccc1` (stereo not drawn) [Prestw-Frag-1929, Compound 213] the “Bmal1(PASB) dTmB” value was -0.34 °C. `OCc1cc(O)cc(O)c1` [Prestw-Frag-1935, Compound 76] was tested, and the “Bmal1(PASB) dTmB” value was -0.85 °C. With `CC(N)C(=O)c1ccccc1` (stereo not drawn) [Prestw-Frag-1941, Compound 223] the “Bmal1(PASB) dTmB” value was -0.18 °C. `OCCCN1CCN(c2ccccc2)CC1` [Prestw-Frag-1944, Compound 178] was tested, and the “Bmal1(PASB) dTmB” value was -0.31 °C. With `OCCN1CCN(c2ccccc2)CC1` [Prestw-Frag-1945, Compound 144] the “Bmal1(PASB) dTmB” value was -0.42 °C. `O=C(CCN1CCCCC1)c1ccccc1` [Prestw-Frag-1953, Compound 479] was tested, and the “Bmal1(PASB) dTmB” value was -3.22 °C. `O=C(Cc1ccccc1)NO` [Prestw-Frag-1961, Compound 252] was tested, and the “Bmal1(PASB) dTmB” value was -0.30 °C. `O=C(O)c1ccc(Oc2ccccc2)cc1` [Prestw-Frag-1968, Compound 155] was tested, and the “Bmal1(PASB) dTmB” value was -0.89 °C. `NC(=O)Cc1ccccn1` [Prestw-Frag-1971, Compound 173] was tested, and the “Bmal1(PASB) dTmB” value was -0.17 °C. With `NS(=O)(=O)c1ccc(Cl)cc1` [Prestw-Frag-1977, Compound 122] the “Bmal1(PASB) dTmB” value was -0.58 °C. With `CCN(CC)CCNc1ccccc1` [Prestw-Frag-1993, Compound 214] the “Bmal1(PASB) dTmB” value was -0.30 °C. For `Cc1cccc(C)c1NC(=O)CN1CCNCC1` [Prestw-Frag-1996, Compound 391], the “Bmal1(PASB) dTmB” value was -0.66 °C. In the case of `NCCc1cnc[nH]1` [Prestw-Frag-1999, Compound 330], the “Bmal1(PASB) dTmB” value is reported as -0.23 °C. In the case of `Cc1c[nH]c(=O)[nH]c1=O` [Prestw-Frag-2017, Compound 255], the “Bmal1(PASB) dTmB” value is reported as -0.13 °C. In the case of `CNC(=O)c1ccc(Cl)cc1` [Prestw-Frag-2018, Compound 319], the “Bmal1(PASB) dTmB” value is reported as -0.45 °C. For `Cc1noc(N)c1C` [Prestw-Frag-2021, Compound 114], the “Bmal1(PASB) dTmB” value was -0.18 °C. For `CNS(=O)(=O)c1ccccc1` [Prestw-Frag-2023, Compound 256], the “Bmal1(PASB) dTmB” value was -0.20 °C. For `CN(C)CCNC(=O)c1ccc(N)cc1` [Prestw-Frag-2031, Compound 430], the “Bmal1(PASB) dTmB” value was -0.84 °C. In the case of `CC(=O)N1CCN(c2ccc(O)cc2)CC1` [Prestw-Frag-2047, Compound 27], the “Bmal1(PASB) dTmB” value is reported as -2.09 °C. In the case of `O=C(O)C1(c2ccccc2)CCCC1` [Prestw-Frag-2049, Compound 104], the “Bmal1(PASB) dTmB” value is reported as -0.56 °C. `NS(=O)(=O)c1cc(C(=O)O)ccc1Cl` [Prestw-Frag-2051, Compound 160] was tested, and the “Bmal1(PASB) dTmB” value was 0.10 °C. With `O=C(O)c1ccccc1NCc1ccco1` [Prestw-Frag-2052, Compound 70] the “Bmal1(PASB) dTmB” value was -0.26 °C. `NC1CCN(Cc2ccccc2)CC1` [Prestw-Frag-2060, Compound 207] was tested, and the “Bmal1(PASB) dTmB” value was -0.05 °C. With `NCCc1ccc(O)cc1` [Prestw-Frag-2070, Compound 299] the “Bmal1(PASB) dTmB” value was -0.26 °C. `Nc1cccnn1` [Prestw-Frag-2072, Compound 233] was tested, and the “Bmal1(PASB) dTmB” value was -0.18 °C. In the case of `Cc1cc(C2CCCCC2)n(O)c(=O)c1` [Prestw-Frag-2092, Compound 58], the “Bmal1(PASB) dTmB” value is reported as -1.46 °C. With `CN(C)C(c1ccccc1)c1ccccc1` [Prestw-Frag-2100, Compound 331] the “Bmal1(PASB) dTmB” value was -1.24 °C. With `COc1ccc(C(F)(F)F)cc1` [Prestw-Frag-2108, Compound 203] the “Bmal1(PASB) dTmB” value was -0.12 °C. In the case of `NC(N)=NCc1cccc(I)c1` [Prestw-Frag-2111, Compound 312], the “Bmal1(PASB) dTmB” value is reported as -0.90 °C. With `COc1ccc2nc(SC)[nH]c2c1` [Prestw-Frag-2118, Compound 167] the “Bmal1(PASB) dTmB” value was 1.19 °C. For `NS(=O)(=O)c1ccc(C(=O)O)cc1` [Prestw-Frag-2123, Compound 82], the “Bmal1(PASB) dTmB” value was -0.15 °C. In the case of `Cc1cc(=O)[nH]c(=S)[nH]1` [Prestw-Frag-2127, Compound 68], the “Bmal1(PASB) dTmB” value is reported as -0.75 °C. `NC(=O)c1ccccn1` [Prestw-Frag-2131, Compound 358] was tested, and the “Bmal1(PASB) dTmB” value was -0.11 °C. `Cc1nc2ccccc2[nH]1` [Prestw-Frag-2136, Compound 408] was tested, and the “Bmal1(PASB) dTmB” value was -0.37 °C. With `O=C(O)Cc1cccs1` [Prestw-Frag-2140, Compound 161] the “Bmal1(PASB) dTmB” value was -0.19 °C. With `O=C1OCc2ccccc21` [Prestw-Frag-2144, Compound 404] the “Bmal1(PASB) dTmB” value was -0.23 °C. For `O=C(CCc1ccccc1)c1ccccc1O` [Prestw-Frag-2152, Compound 434], the “Bmal1(PASB) dTmB” value was -0.33 °C. In the case of `CC(C)NCC(O)c1ccccc1` (stereo not drawn) [Prestw-Frag-2168, Compound 193], the “Bmal1(PASB) dTmB” value is reported as -0.58 °C. In the case of `O=C1CNS(=O)(=O)c2ccsc21` [Prestw-Frag-2176, Compound 30], the “Bmal1(PASB) dTmB” value is reported as -4.81 °C. For `Cc1c(C)c2c(c(C)c1O)CCC(C)(C)O2` [Prestw-Frag-2185, Compound 438], the “Bmal1(PASB) dTmB” value was 1.30 °C. With `COc1cc2c(cc1OC)C(C)NCC2` (stereo not drawn) [Prestw-Frag-2193, Compound 348] the “Bmal1(PASB) dTmB” value was -0.74 °C. For `CCOc1ccc(N)cc1` [Prestw-Frag-2201, Compound 146], the “Bmal1(PASB) dTmB” value was -0.64 °C. In the case of `COc1ccc(OC)c(C(C)O)c1` (stereo not drawn) [Prestw-Frag-2208, Compound 283], the “Bmal1(PASB) dTmB” value is reported as -0.43 °C. In the case of `COc1ccc(CN2CCNCC2)cc1` [Prestw-Frag-2212, Compound 304], the “Bmal1(PASB) dTmB” value is reported as -0.50 °C. `c1ccc(CN2CCNCC2)cc1` [Prestw-Frag-2215, Compound 424] was tested, and the “Bmal1(PASB) dTmB” value was -0.38 °C. For `O=C(Cc1ccccc1)c1ccccc1` [Prestw-Frag-2219, Compound 440], the “Bmal1(PASB) dTmB” value was -0.71 °C. `OCC(O)COc1ccc(Cl)cc1` (stereo not drawn) [Prestw-Frag-2229, Compound 393] was tested, and the “Bmal1(PASB) dTmB” value was 0.07 °C. For `CS(=O)(=O)c1ccc(CO)cc1` [Prestw-Frag-2234, Compound 220], the “Bmal1(PASB) dTmB” value was -0.40 °C. In the case of `CC(O)(c1ccccc1)c1ccccc1` [Prestw-Frag-2235, Compound 444], the “Bmal1(PASB) dTmB” value is reported as -1.59 °C. `CC(O)(c1ccccc1)c1ccccn1` (stereo not drawn) [Prestw-Frag-2237, Compound 355] was tested, and the “Bmal1(PASB) dTmB” value was -0.76 °C. With `OC(c1ccccc1)c1ccccn1` (stereo not drawn) [Prestw-Frag-2238, Compound 262] the “Bmal1(PASB) dTmB” value was -0.66 °C. In the case of `CC(=O)c1ccc2c(c1)Nc1ccccc1S2` [Prestw-Frag-2239, Compound 65], the “Bmal1(PASB) dTmB” value is reported as 0.31 °C. For `CCCCOc1cc(C(=O)OC)ccc1N` [Prestw-Frag-2253, Compound 206], the “Bmal1(PASB) dTmB” value was -0.90 °C. With `Nc1nc2ccccc2o1` [Prestw-Frag-2256, Compound 309] the “Bmal1(PASB) dTmB” value was -0.33 °C. In the case of `NC(=O)c1[nH]cnc1N` [Prestw-Frag-2268, Compound 14], the “Bmal1(PASB) dTmB” value is reported as -0.68 °C. With `c1ccc2c(c1)OCO2` [Prestw-Frag-2299, Compound 175] the “Bmal1(PASB) dTmB” value was -0.52 °C. `OCc1ccncc1` [Prestw-Frag-2303, Compound 179] was tested, and the “Bmal1(PASB) dTmB” value was -0.35 °C. For `OCc1cccnc1` [Prestw-Frag-2304, Compound 272], the “Bmal1(PASB) dTmB” value was -0.06 °C. `Cc1cccc(C)c1N` [Prestw-Frag-2313, Compound 365] was tested, and the “Bmal1(PASB) dTmB” value was -0.18 °C. For `COc1cc(NS(=O)(=O)c2ccc(N)cc2)ncn1` [Prestw-Frag-2337, Compound 376], the “Bmal1(PASB) dTmB” value was 0.09 °C. With `COC(=O)c1ccc(N)cc1` [Prestw-Frag-2346, Compound 380] the “Bmal1(PASB) dTmB” value was -0.11 °C. `N=C(N)CSCc1ccccc1` [Prestw-Frag-2348, Compound 201] was tested, and the “Bmal1(PASB) dTmB” value was 0.25 °C. `O=C(O)c1cc(=O)c2ccccc2o1` [Prestw-Frag-2352, Compound 352] was tested, and the “Bmal1(PASB) dTmB” value was -0.25 °C. For `Clc1ccc(CNc2ccccn2)cc1` [Prestw-Frag-2356, Compound 344], the “Bmal1(PASB) dTmB” value was -0.84 °C. In the case of `O=C1c2ccccc2CN1c1ccccc1` [Prestw-Frag-2360, Compound 56], the “Bmal1(PASB) dTmB” value is reported as -0.56 °C. `NC(=O)C(c1ccccc1)c1ccccc1` [Prestw-Frag-2366, Compound 415] was tested, and the “Bmal1(PASB) dTmB” value was -0.76 °C. With `S=c1[nH]cc[nH]1` [Prestw-Frag-2373, Compound 253] the “Bmal1(PASB) dTmB” value was -1.25 °C. With `O=C(O)CCC(=O)Nc1ccccc1` [Prestw-Frag-2383, Compound 124] the “Bmal1(PASB) dTmB” value was -0.33 °C. In the case of `O=C(C1COc2ccccc2O1)N1CCNCC1` (stereo not drawn) [Prestw-Frag-2389, Compound 381], the “Bmal1(PASB) dTmB” value is reported as -0.24 °C. `N#Cc1ccc[nH]c1=O` [Prestw-Frag-2408, Compound 346] was tested, and the “Bmal1(PASB) dTmB” value was -0.07 °C.
